Measured values from ChEMBL document CHEMBL1201862, “PubChem BioAssay data set” (2004).
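Following 48 hours of exposure in 96-well plates, responses at five concentrations were used to interpolate endpoints linearly. GI50 = concentration required for 50% inhibition of growth.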 Active and inactive are the calls of the source. No stated cut-off is given here; in the data, active = GI50 up to about 1.1 µM and inactive = higher.

Legend:
Assay in all cases: growth of human tumour cells (NCI), 48 h
SF-539 = test system: SF-539
ACHN = test system: ACHN
RPMI-8226 = test system: RPMI-8226
K562 = test system: K562
KM12 = test system: KM12
HOP-92 = test system: HOP-92
OVCAR-5 = test system: OVCAR-5
HT-29 = test system: HT-29
M14 = test system: M14
MOLT-4 = test system: MOLT-4
CCRF-CEM = test system: CCRF-CEM
EKVX = test system: EKVX
IGROV-1 = test system: IGROV-1
A549 = test system: A549
OVCAR-8 = test system: OVCAR-8
NCI-H522 = test system: NCI-H522
SK-MEL-5 = test system: SK-MEL-5
SNB-75 = test system: SNB-75
UACC-257 = test system: UACC-257
DU-145 = test system: DU-145

Structure (SMILES) | GI50 (SF-539) | GI50 (ACHN) | GI50 (RPMI-8226) | GI50 (K562) | GI50 (KM12) | GI50 (HOP-92) | GI50 (OVCAR-5) | GI50 (HT-29) | GI50 (M14) | GI50 (MOLT-4) | GI50 (CCRF-CEM) | GI50 (EKVX) | GI50 (IGROV-1) | GI50 (A549) | GI50 (OVCAR-8) | GI50 (NCI-H522) | GI50 (SK-MEL-5) | GI50 (SNB-75) | GI50 (UACC-257) | GI50 (DU-145)
CCN(CC)CCSc1c2ccccc2nc2cc(NCC(=O)Nc3ccccc3-c3ccccc3NC(=O)CNc3ccc4c(SCCN(CC)CC)c5ccccc5nc4c3)ccc12 | > 100 µM (inactive) | > 100 µM (inactive) | 53.7 µM (inactive) | 24 µM (inactive) | > 74.8 µM (inactive) | > 100 µM (inactive) | > 100 µM (inactive) | > 100 µM (inactive) | > 100 µM (inactive) | 23.2 µM (inactive) | 24.9 µM (inactive) | > 100 µM (inactive) | > 100 µM (inactive) | > 100 µM (inactive) | > 100 µM (inactive) | 74.6 µM (inactive) | > 100 µM (inactive) | > 77.4 µM (inactive) | > 100 µM (inactive) | 
CN(C)c1ccc2c(=O)c3ccccc3oc2n1 |  | 42 µM (inactive) | > 100 µM (inactive) | > 100 µM (inactive) | 69.7 µM (inactive) | > 100 µM (inactive) | > 100 µM (inactive) |  | > 100 µM (inactive) | > 100 µM (inactive) | > 100 µM (inactive) | 35 µM (inactive) | 93.1 µM (inactive) | > 100 µM (inactive) | > 100 µM (inactive) | > 100 µM (inactive) | 38.6 µM (inactive) | > 100 µM (inactive) | > 100 µM (inactive) | 
Cc1nc2ccc(NC(=S)Nc3ccccc3)cc2c(=O)n1-c1ccccc1 |  | > 100 µM (inactive) | 23.6 µM (inactive) | 46.3 µM (inactive) | > 100 µM (inactive) |  | > 100 µM (inactive) | > 100 µM (inactive) |  | 48.9 µM (inactive) |  | > 100 µM (inactive) | > 100 µM (inactive) |  | > 100 µM (inactive) | > 100 µM (inactive) | 51.3 µM (inactive) | > 100 µM (inactive) | > 100 µM (inactive) | > 100 µM (inactive)
Cn1ccnc1CCc1ccc(Cl)c(Cl)c1 | > 100 µM (inactive) | > 100 µM (inactive) | > 100 µM (inactive) | 54.7 µM (inactive) | > 100 µM (inactive) | 43.3 µM (inactive) | > 100 µM (inactive) | 86.7 µM (inactive) | > 100 µM (inactive) | > 100 µM (inactive) | > 100 µM (inactive) |  | > 100 µM (inactive) | > 100 µM (inactive) | > 100 µM (inactive) | > 100 µM (inactive) | 37.5 µM (inactive) | 37.3 µM (inactive) | > 100 µM (inactive) | 
C[C@@H]1OC2(O)[C@H]3CCCN3S(=O)(=O)CCN2C1=O (stereo partly drawn) | > 100 µM (inactive) | > 100 µM (inactive) | > 100 µM (inactive) | > 100 µM (inactive) | > 100 µM (inactive) | > 100 µM (inactive) | > 100 µM (inactive) | > 100 µM (inactive) | > 100 µM (inactive) | > 100 µM (inactive) | > 100 µM (inactive) | > 100 µM (inactive) | > 100 µM (inactive) | > 100 µM (inactive) | > 100 µM (inactive) | > 100 µM (inactive) | > 100 µM (inactive) | > 100 µM (inactive) | > 100 µM (inactive) | 
CN[C@@H](C)[C@H](NC)c1ccccc1 | > 100 µM (inactive) |  | > 100 µM (inactive) | > 100 µM (inactive) | > 100 µM (inactive) | > 100 µM (inactive) |  | > 100 µM (inactive) | > 100 µM (inactive) | > 100 µM (inactive) | > 100 µM (inactive) | > 100 µM (inactive) | > 100 µM (inactive) | > 100 µM (inactive) | > 100 µM (inactive) | > 100 µM (inactive) | > 100 µM (inactive) | > 100 µM (inactive) | > 100 µM (inactive) | 
Cc1cccc(C(C)(C)C)c1NC(=O)C(=O)C(C(=O)/C=C\c1ccccc1)C1OC(=O)c2ccccc21 (stereo not drawn) | > 100 µM (inactive) | > 100 µM (inactive) | > 100 µM (inactive) | > 100 µM (inactive) | > 100 µM (inactive) | > 100 µM (inactive) | > 100 µM (inactive) | > 100 µM (inactive) | > 100 µM (inactive) | > 100 µM (inactive) | > 100 µM (inactive) | > 100 µM (inactive) | > 100 µM (inactive) | > 100 µM (inactive) | > 100 µM (inactive) | > 100 µM (inactive) | > 100 µM (inactive) | > 100 µM (inactive) | > 100 µM (inactive) | 
C/C(=N\Nc1nc2ccccc2[nH]1)c1cnccn1 | 0.713 µM (active) | 0.231 µM (active) | 0.533 µM (active) | 1.23 µM (inactive) | 1.12 µM (active) | 0.385 µM (active) | 6.84 µM (inactive) | 0.394 µM (active) | 0.614 µM (active) | 0.232 µM (active) | 0.31 µM (active) | 0.491 µM (active) | 0.139 µM (active) | 1.88 µM (inactive) | 0.8 µM (active) | 0.169 µM (active) | 0.881 µM (active) | 3.61 µM (inactive) | 2.94 µM (inactive) | 
CCOC(=O)c1nnsc1NC(=O)NCCCCCCn1c(=O)n(CCCCCCNC(=O)Nc2snnc2C(=O)OCC)c(=O)n(CCCCCCNC(=O)Nc2snnc2C(=O)OCC)c1=O |  | 47 µM (inactive) | 11 µM (inactive) | 66.4 µM (inactive) | 93.3 µM (inactive) |  | > 100 µM (inactive) | > 100 µM (inactive) | > 100 µM (inactive) | 31.1 µM (inactive) | 38.5 µM (inactive) | 60.4 µM (inactive) | 32.1 µM (inactive) | > 100 µM (inactive) | 35.8 µM (inactive) |  | 71.1 µM (inactive) | 29.1 µM (inactive) | 85.3 µM (inactive) | 49.3 µM (inactive)
CC12CCC3(C1)[C@H](CC2=O)C[C@@H](OC(=O)c1ccccc1)C1C(C)(CO)CCC[C@@]13C (stereo partly drawn) | 6.08 µM (inactive) | 0.342 µM (active) | 0.746 µM (active) | 0.416 µM (active) | 2.9 µM (inactive) | 3.65 µM (inactive) | 2 µM (inactive) | 3.56 µM (inactive) | 3.61 µM (inactive) | 1.54 µM (inactive) | 2.29 µM (inactive) | 3.96 µM (inactive) | 6.49 µM (inactive) | 3.46 µM (inactive) | 3.13 µM (inactive) | 2.02 µM (inactive) | < 0.01 µM (active) | 9.14 µM (inactive) | 0.149 µM (active) | 
CCCCCCCCCCCC(=O)OCC1OC(n2cc(F)c(=O)[nH]c2=O)C(NC(=O)OCc2ccccc2)C(OC(=O)CCCCCCCCCCC)C1O (stereo not drawn) | > 100 µM (inactive) | > 100 µM (inactive) | > 100 µM (inactive) | > 100 µM (inactive) | > 100 µM (inactive) | > 100 µM (inactive) | > 100 µM (inactive) | > 100 µM (inactive) | > 100 µM (inactive) | > 100 µM (inactive) | > 100 µM (inactive) | > 100 µM (inactive) | > 100 µM (inactive) | > 100 µM (inactive) | > 100 µM (inactive) | > 100 µM (inactive) | > 100 µM (inactive) | > 100 µM (inactive) | > 100 µM (inactive) | 
COCN1C(=O)[C@@H]2C[C@@H](OC/C=C/CBr)CN2C(=O)c2ccccc21 | 17.5 µM (inactive) | 19.9 µM (inactive) |  |  | 22 µM (inactive) |  | 20.1 µM (inactive) | 20.2 µM (inactive) | 16.1 µM (inactive) | 17.7 µM (inactive) | 5.77 µM (inactive) | 23 µM (inactive) | 9.23 µM (inactive) | 17.1 µM (inactive) | 14.5 µM (inactive) | 5.68 µM (inactive) | 14.4 µM (inactive) | 10.7 µM (inactive) | 16.5 µM (inactive) | 19.4 µM (inactive)
CN(C)c1ccc(/C=C2\Oc3cc(O)ccc3C2=O)cc1 | > 100 µM (inactive) | > 100 µM (inactive) | 74.1 µM (inactive) | 37.8 µM (inactive) | 61.2 µM (inactive) |  |  |  | 75.7 µM (inactive) | 60.8 µM (inactive) | 69.5 µM (inactive) | > 100 µM (inactive) | > 100 µM (inactive) | 88.1 µM (inactive) | > 100 µM (inactive) | 28.1 µM (inactive) | 80.7 µM (inactive) | 79.6 µM (inactive) | > 100 µM (inactive) | > 100 µM (inactive)
COC(=O)C(C(=O)C(=O)Nc1c(C)cccc1C)c1cnc2ccccc2n1 (stereo not drawn) |  | > 100 µM (inactive) | > 100 µM (inactive) | > 100 µM (inactive) | > 100 µM (inactive) | > 100 µM (inactive) | > 100 µM (inactive) | > 100 µM (inactive) | > 100 µM (inactive) | > 100 µM (inactive) | > 100 µM (inactive) | > 100 µM (inactive) | > 100 µM (inactive) | > 100 µM (inactive) | > 100 µM (inactive) | > 100 µM (inactive) | > 100 µM (inactive) | > 100 µM (inactive) | > 100 µM (inactive) | 
CC(=O)NC1C(=O)CC(c2ccccc2)N(C)C1c1ccccc1 (stereo not drawn) | > 100 µM (inactive) | > 100 µM (inactive) |  | > 100 µM (inactive) | > 100 µM (inactive) | 82.6 µM (inactive) | > 100 µM (inactive) | 78 µM (inactive) | 61 µM (inactive) | > 100 µM (inactive) | > 100 µM (inactive) | > 100 µM (inactive) | > 100 µM (inactive) | > 100 µM (inactive) | > 100 µM (inactive) | > 100 µM (inactive) | > 100 µM (inactive) | > 100 µM (inactive) | > 100 µM (inactive) | 
